These results are taken from ChEMBL document CHEMBL3585277, “Novel type of plasmin inhibitors: providing insight into P4 moiety and alternative scaffold to pyrrolopyrimidine” (Bioorg Med Chem, 2015).

The structures appear in SMILES notation.

In assay [1] the target is T1, Plasminogen (Homo sapiens, UniProt P00747). The assay is described as follows: Inhibition of plasmin (unknown origin) using Boc-Val-Leu-Lys-MCA as substrate by fluorescence analysis.
In assay [2] the target is T1, Plasminogen. The assay is described as follows: Inhibition of plasmin (unknown origin) assessed as relative potency using Boc-Val-Leu-Lys-MCA as substrate by fluorescence analysis.
The target in assay [3] is Urokinase-type plasminogen activator (Homo sapiens, UniProt P00749). The assay is described as follows: Inhibition of urokinase (unknown origin) using Pyr-Gly-Arg-MCA as substrate by fluorescence analysis.

As usually defined, the IC50 is the concentration that inhibits the measured activity by half. Read a low IC50 as higher potency.

T1 sequence (P00747 97-580 limits assumed): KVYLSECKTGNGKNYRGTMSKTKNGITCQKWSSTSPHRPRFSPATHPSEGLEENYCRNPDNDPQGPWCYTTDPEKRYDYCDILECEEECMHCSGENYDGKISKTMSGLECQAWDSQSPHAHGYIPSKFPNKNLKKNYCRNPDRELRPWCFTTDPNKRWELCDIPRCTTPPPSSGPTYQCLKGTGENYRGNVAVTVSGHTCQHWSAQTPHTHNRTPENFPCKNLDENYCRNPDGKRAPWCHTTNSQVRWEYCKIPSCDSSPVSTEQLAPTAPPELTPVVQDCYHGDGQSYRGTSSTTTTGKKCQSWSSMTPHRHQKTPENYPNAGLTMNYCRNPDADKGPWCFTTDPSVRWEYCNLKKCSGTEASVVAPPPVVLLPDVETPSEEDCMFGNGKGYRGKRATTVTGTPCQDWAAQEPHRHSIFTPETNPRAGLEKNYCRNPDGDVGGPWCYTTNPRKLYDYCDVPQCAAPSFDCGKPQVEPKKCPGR
T1 sequence (P00747 581-810 limits assumed): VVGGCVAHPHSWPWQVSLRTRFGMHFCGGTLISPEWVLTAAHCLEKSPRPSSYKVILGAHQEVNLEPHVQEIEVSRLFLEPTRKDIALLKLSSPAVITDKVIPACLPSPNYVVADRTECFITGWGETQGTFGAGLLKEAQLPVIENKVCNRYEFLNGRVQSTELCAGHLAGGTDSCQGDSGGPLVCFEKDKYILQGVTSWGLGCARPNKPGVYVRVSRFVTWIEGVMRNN

`Cn1c(CN2C(=O)CN(c3ccc4oc(=O)n(Cc5ccncc5)c4c3)C2=O)cc2cnc(C(=O)N[C@H](C#N)CCCCN)nc21` gave an IC50 against Plasminogen [1] of 23 µM.
As for `Cn1c(CN2C(=O)CN(c3ccc4c(c3)oc(=O)n4C)C2=O)cc2cnc(C(=O)N[C@H](C#N)CCCCN)nc21`, at Plasminogen [2], the fold change (FC) stood at 3.9. For the same molecule, the IC50 at Plasminogen [1] is 130 µM.
For `Cn1c(CN2C(=O)CN(c3ccc4oc(=O)n(C)c4c3)C2=O)cc2cnc(C(=O)N[C@H](C#N)CCCCN)nc21` the same measures were 3.1 and 43 µM.
As for `Cn1c(CN2C(=O)CN(c3ccc4c(c3)oc(=O)n4Cc3ccncc3)C2=O)cc2cnc(C(=O)N[C@H](C#N)CCCCN)nc21`, the IC50 against Plasminogen [1] is more than 200 µM.
Still for that read-out and setting: the value for `Cn1c(CN2C(=O)CN(c3ccc(Oc4ccccc4)cc3)C2=O)nc2cc(C(=O)N[C@H](C#N)CCCCN)ccc21` was more than 200 µM.
As to `Cn1c(CN2C(=O)CN(c3ccc(F)cc3)C2=O)nc2ccc(C(=O)N[C@H](C#N)CCCCN)cc21`, the IC50 in assay [3] is more than 200 µM; at Plasminogen [1], 100 µM.
`Cn1c(CN2C(=O)CN(c3ccc(Oc4ccccc4)cc3)C2=O)nc2ccc(C(=O)N[C@H](C#N)CCCCN)cc21` registered an IC50 at Plasminogen [1] of 25 µM.
Regarding `Cn1c(CN2C(=O)CN(c3ccc(F)cc3)C2=O)cc2cnc(C(=O)N[C@H](C#N)CCCCN)nc21`, the IC50 in assay [3] is more than 200 µM; against Plasminogen [1], 43 µM. The fold change (FC) on Plasminogen [2] is 3.
Consider `CCCn1c(=O)oc2ccc(N3CC(=O)N(Cc4cc5cnc(C(=O)N[C@H](C#N)CCCCN)nc5n4C)C3=O)cc21`, for which half-maximal inhibition on Plasminogen [1] (IC50) was put at 26 µM.
Same read-out and setting: the value for `CC(C)Cn1c(=O)oc2ccc(N3CC(=O)N(Cc4cc5cnc(C(=O)N[C@H](C#N)CCCCN)nc5n4C)C3=O)cc21` was 29 µM; that for `CC(C)Cn1c(=O)oc2cc(N3CC(=O)N(Cc4cc5cnc(C(=O)N[C@H](C#N)CCCCN)nc5n4C)C3=O)ccc21` was more than 200 µM.
Regarding `Cn1c(CN2C(=O)CN(c3ccc(Oc4ccncc4)cc3)C2=O)nc2ccc(C(=O)N[C@H](C#N)CCCCN)cc21`, the values for the half-maximal inhibitory concentration (IC50) (in assay [3]; on Plasminogen [1]) were more than 200 µM and 56 µM, respectively.
For `Cn1c(CN2C(=O)CN(c3ccc(Oc4ccncc4)cc3)C2=O)cc2cnc(C(=O)N[C@H](C#N)CCCCN)nc21` the same measures were more than 200 µM and 74 µM.
Molecule `CCCn1c(=O)oc2cc(N3CC(=O)N(Cc4cc5cnc(C(=O)N[C@H](C#N)CCCCN)nc5n4C)C3=O)ccc21` displayed an IC50 against Plasminogen [1] of 160 µM.
Regarding `N#C[C@H](CCCCN)NC(=O)c1nc2cc(CN3C(=O)CN(c4ccc(F)cc4)C3=O)ccc2o1`, the fold change (FC) on Plasminogen [2] was more than 14.3. Also, on Plasminogen [1], the IC50 is more than 200 µM.
Regarding `Cn1c(CN2C(=O)CN(c3ccc(Oc4ccccc4)cc3)C2=O)cc2cnc(C(=O)N[C@H](C#N)CCCCN)nc21`, the IC50 in assay [3] is more than 200 µM; at Plasminogen [1], 14 µM. Moreover, the fold change (FC) on Plasminogen [2] is 1.
